Read-outs that look alike come from different tables or passages of the source.
Assays:
[1] = test system: HSV-2; assay: In vitro antiviral assay for HSV-2; assay type: cell-based, Herpes Simplex Virus 2
Method in brief: (§1)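 Performed according to previously reported procedures for each virus; no further conditions are given for the HSV-2, CMV, HIV or EBV assays.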

[2] = test system: EBV; assay: In vitro antiviral assay for EBV; assay type: cell-based, Epstein-Barr Virus
Method in brief: as §1

[3] = Cell cytotoxicity assay on MT-2 cells; assay type: cell-based; settings: human, read-out: Cytotoxity (ID50, μM) MT-2
Method in brief: (§2)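 MT-2 and CEM cytotoxicity determined per previously reported procedures. HepG2 cells seeded at 10^4 cells/ml in MEME + 10% FBS, compound added on day 2 for 3 further days at 37° C. Viable layer stained with methylene blue, solubilized in 1% sarcosyl, A595 read.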

[4] = Cell cytotoxicity assay on CEM cells; assay type: cell-based; settings: human, read-out: Cytotoxity (ID50, μM) CEM
Method in brief: as §2

[5] = test system: HBV; assay: In vitro antiviral assay for HBV (Table 1); assay type: cell-based, Hepatitis B virus; settings: read-out: Antiviral Activities (EC50, μM) HBV
[6] = test system: CMV; assay: In vitro antiviral assay for CMV; assay type: cell-based, cytomegalovirus; settings: Human betaherpesvirus 5, read-out: Antiviral Activities (EC50, μM) CMV
Procedure: The antiviral assays for HBV, (Doong et al., 1991, Proc. Natl. Acad. Sci. U.S.A. 88:8495-8499) HSV-1, (Bastow et al., 1983, Antimicrob. Agents Chemother. 23: 914-917) HSV-2, (Bastow et al., 1983, Antimicrob. Agents Chemother. 23:914-917) EBV, (Yao et al., 1993, Antimicrob. Agents Chemother. 37:1420-1425), CMV (Andreoni et al., 2002, J. Med. Virol. 67:33-40) and HIV (Mellors et al., 1992, Mol. Pharmacol. 41: 446-451) were performed according to the previously reported procedures. Anti-HCV activities were tested in Huh-Luc/neo cell line. Cells were seeded into 48-well plates and grown until confluent. Different concentrations of drugs were added into media (DMEM, 10% dFBS) and incubated for 3 days. At the end of 3-day treatment, medium were removed and 50 μl of Passive lysis buffer (Promega) were added. Cell lysate was shaken at room temperature for 15 min. 30 μl/well of cell lysate was transferred to another 96-well plate, 100 μl/well of luciferase activity assay substrate was added into plate and read by a luminometer (Amersham) immediately.

[7] = test system: HCV; assay: Anti-HCV activity in Huh-Luc/neo cell line, luciferase activity after 3-day treatment; assay type: cell-based, Hepatitis C virus; settings: Huh-Luc/neo cells, 3 days; for EC50: given as a bound only, read-out: Antiviral Activities (EC50, μM) HCV
[8] = test system: HSV-1; assay: In vitro antiviral assay for HSV-1; assay type: cell-based, Herpes Simplex Virus 1
Method in brief: as §1

[9] = test system: HIV; assay: In vitro antiviral assay for HIV; assay type: cell-based, human immunodeficiency virus; settings: (T) after a value means toxic
Method in brief: as §1

[10] = test system: MT-2 cells; assay: Cell cytotoxicity assay on MT-2 cells; assay type: cell-based; settings: read-out: Cytotoxity (ID50, μM) MT-2
Method in brief: as §2

[11] = test system: CEM cells; assay: Cell cytotoxicity assay on CEM cells; assay type: cell-based; settings: read-out: Cytotoxity (ID50, μM) CEM
Method in brief: as §2

[12] = Human alphaherpesvirus 2, read-out: Antiviral Activities (EC50, μM) HSV-2
[13] = human gammaherpesvirus 4, read-out: Antiviral Activities (EC50, μM) EBV
[14] = Hepatitis C virus, 72 h, at 10 μM, read-out: HCV percent of inhibition
[15] = Human alphaherpesvirus 1, read-out: Antiviral Activities (EC50, μM) HSV-1
[16] = Human immunodeficiency virus 1, read-out: Antiviral Activities (EC50, μM) HIV, in vitro
[17] = in vitro, read-out: Antiviral Activities (EC50, μM) HSV-2
[18] = in vitro, read-out: Antiviral Activities (EC50, μM) EBV
[19] = in vitro, read-out: Antiviral Activities (EC50, μM) HSV-1
[20] = in vitro, read-out: Antiviral Activities (EC50, μM) HIV

| Compound | EC50 [1, 12] | EC50 [2, 13] | IC50 [3] | melting point | IC50 [4] | EC50 ([5]; Hepatitis B virus) | EC50 [6] | EC50 [8, 15] | EC50 [9, 16] | EC50 ([7]; Hepatitis C virus, 72 h) | other results |
| --- | --- | --- | --- | --- | --- | --- | --- | --- | --- | --- | --- |
| O=C([O-])c1cc2ccc3c(c2c(-c2ccc4c(c2)OCO4)c1CO)OCO3.[Na+] [Compound 3, 9-Benzo[1,3]dioxol-5-yl-8-hydroxymethyl-naphtho[1,2-d][1,3]dioxole-7-carboxylic acid monosodium salt] | 25 µM | > 20 µM | 10 µM | 128 to 130 °C | 30 µM | 3.4 µM | 2.5 µM | 9 µM | > 10 µM |  | inhibition at 10 µM [7, 14]: 25% |
| O=C(NCCCOCc1ccccc1)c1cc2ccc3c(c2c(-c2ccc4c(c2)OCO4)c1COCc1ccccc1)OCO3 [Compound 8, 9-Benzo[1,3]dioxol-5-yl-8-benzyloxymethyl-naphtho[1,2-d][1,3]dioxole-7-carboxylic acid (3-benzyloxy-propyl)-amide] | > 25 µM | > 15 µM | > 100 µM |  | 10 µM | > 10 µM | 3.7 µM | > 25 µM | > 100 µM | > 10 µM |  |
| O=C1c2cc3ccc4c(c3c(-c3ccc5c(c3)OCO5)c2C(=O)N1CCCOCc1ccccc1)OCO4 [Compound 10, 10-Benzo[1,3]dioxol-5-yl-8-(3-benzyloxy-propyl)-1,3-dioxa-8-aza-dicycloplenta[a,g]naphthalene-7,9-dione] |  |  |  |  |  |  |  |  |  |  | EC50 [1, 17]: > 50 µM; EC50 [2, 18]: > 5 µM; IC50 [10]: > 100 µM; IC50 [11]: > 100 µM; EC50 ([5]; in vitro): > 10 µM; HCV percent of inhibition ([7]; at 10 μM): 62%; EC50 [8, 19]: > 50 µM; EC50 [9, 20]: > 100 µM |
| NC(=O)c1cc2ccc3c(c2c(-c2ccc4c(c2)OCO4)c1C(=O)O)OCO3 [Compound 12, 9-Benzo[1,3]dioxol-5-yl-7-carbamoyl-naphtho[1,2-d][1,3]dioxole-8-carboxylic acid] | < 0.1 µM | 9 µM | 5 µM |  | 8.4 µM | 0.8 µM | 0.45 µM | 0.15 µM | > 5 µM |  | times more potent than the reference drug acylclovir against HSV-2 ([1]; ratio of EC50 values): ~210 times; inhibition at 3 µM ([7]; Hepatitis C virus, 72 h, at 3 μM, read-out: HCV percent of inhibition): 58%; times more potent than the reference drug acylclovir against HSV-1 ([8]; ratio of EC50 values): about 140 times |
| O=C1NCc2cc3ccc4c(c3c(-c3ccc5c(c3)OCO5)c21)OCO4 [Compound 16, 10-Benzo[1,3]dioxol-5-yl-7,8-dihydro-13-dioxa-8-aza-dicyclopenta[a,g]naphthalen-9-one] |  |  |  |  |  |  |  |  |  |  | EC50 [1, 17]: > 50 µM; EC50 [2, 18]: > 20 µM; IC50 [10]: > 100 µM; IC50 [11]: 90 µM; EC50 ([5]; in vitro): > 10 µM; EC50 [7]: > 10 µM; EC50 [8, 19]: > 50 µM; EC50 [9, 20]: > 100 µM |
| O=C1c2cc3ccc4c(c3c(-c3ccc5c(c3)OCO5)c2C(=O)N1O)OCO4 [Compound 24, 10-Benzo[1,3]dioxol-5-yl-8-hydroxy-1,3-dioxa-8-aza-dicyclopenta[a,g]naphthalene-7,9-dione] | > 30 µM | > 5 µM | 16 µM | 255 °C (dec.) | 17 µM | > 5 µM | 4.1 µM | > 30 µM | > 16 µM | > 10 µM |  |
| O=C1c2cc3ccc4c(c3c(-c3ccc5c(c3)OCO5)c2C(=O)N1CCCO)OCO4 [Compound 29, 10-Benzo[1,3]dioxol-5-yl-8-(3-hydroxy-propyl)-1,3-dioxa-8-aza-dicyclopenta[a,g]naphthalene-7,9-dione] | > 30 µM | > 5 µM | 22 µM | 150 to 152 °C | 27 µM | > 5 µM | 8.1 µM | > 30 µM | > 22 µM | > 10 µM |  |
| O=C1OCc2c1cc1c(Cl)cc3c(c1c2-c1ccc2c(c1)OCO2)OCO3 [Compound 37, 10-Benzo[1,3]dioxol-5-yl-5-chloro-9H-furo[3′,4′:6,7]naphtho[1,2-d][1,3]dioxol-7-one] | > 25 µM | > 20 µM | 50 µM | 267 °C (dec.) | 27 µM | > 10 µM | 8.8 µM | 23 µM | > 50 µM | > 10 µM |  |
| O=c1[nH][nH]c(=O)c2c(-c3ccc4c(c3)OCO4)c3c4c(cc(Br)c3cc12)OCO4 [Compound 42, 11-Benzo[1,3]dioxol-5-yl-5-bromo-8,9-dihydro-[1,3]dioxa-8,9-diaza-cyclopenta[a]anthracene-7,10-dione] |  |  |  |  |  |  |  |  |  |  | EC50 [1, 17]: > 20 µM; EC50 [2, 18]: > 20 µM; IC50 [10]: > 100 µM; IC50 [11]: 28 µM; EC50 ([5]; in vitro): > 20 µM; HCV percent of inhibition ([7]; at 3 μM): 45%; EC50 [8, 19]: 16 µM |
| O=C([O-])c1cc2c(Cl)cc3c(c2c(-c2ccc4c(c2)OCO4)c1CO)OCO3.[Na+] [Compound 44, 9-Benzo[1,3]dioxol-5-yl-5-chloro-8-hydroxymethyl-naphtho[1,2-d][1,3]dioxole-7-carboxylic acid monosodium salt] | > 50 µM | > 20 µM | 60 µM | 220 °C (dec.) | > 100 µM | > 10 µM | > 20 µM | > 50 µM | > 60 µM | > 10 µM |  |
| O=C([O-])c1cc2c(I)cc3c(c2c(-c2ccc4c(c2)OCO4)c1CO)OCO3.[Na+] [Compound 46, 9-Benzo[1,3]dioxol-5-yl-8-hydroxymethyl-5-iodo-naphtho[1,2-d][1,3]dioxole-7-carboxylic acid monosodium salt] | > 50 µM | > 20 µM | 80 µM | 212 °C (dec.) | > 100 µM | > 18 µM | > 20 µM | > 50 µM | > 80 µM |  | inhibition at 10 µM [7, 14]: 36% |

— US7754718B2 (priority 2004, dated 2010)
